Test results as given in PMC6748410, “A phase 2 study of an oral mTORC1/mTORC2 kinase inhibitor (CC-223) for non-pancreatic neuroendocrine tumors with or without carcinoid symptoms” (PLoS ONE, 2019).

Columns and labels:
[1] = Treatment-related adverse events and tolerability (CTCAE v4.0) in patients with NET; format: in vivo
Description: CC-223 capsules were taken orally once daily in continuous 28-day cycles. An initial cohort started CC-223 at a dose of 45 mg; this was the maximum tolerated dose (MTD) established in phase 1 but, after observing a high rate of dose adjustments due to toxicity among patients with NET, a second cohort started CC-223 at 30 mg. To mitigate toxicity, dosage could be adjusted with either short interruptions, dose level reductions, or every-other-day administration. Treatment was permanently discontinued for disease progression, unmanageable toxicity, patient withdrawal of consent, or other reasons specified by the protocol as requiring study withdrawal.
Baseline assessments were completed within 28 days prior to first dose of CC-223. Drug tolerability was continuously evaluated until 28 days after the last dose, using clinical event and laboratory test monitoring comprising a conventional hematologic and coagulation (if taking anti-coagulants) panel; serum electrolytes; fasting blood glucose (this also included daily self-monitoring with finger stick samples for the first month and for longer if necessary), HbA1c, insulin, and c-peptide; liver enzymes; serum creatinine; and protein. Others included serum uric acid, amylase and lipase, lipoproteins, thyroid function tests, creatine kinase, and immunoglobulins including T-cell subsets (CD4+ and CD8+). We also performed serial triplicate electrocardiograms (ECGs), periodic left ventricular ejection fraction estimations (echo or multiple gated acquisition [MUGA]), regular physical exams and vital sign measurements (heart rate, blood pressure, respiratory rate, and temperature). Adverse events were coded with Medical Dictionary for Regulatory Activities (MedDRA) version 19.0. Severity of adverse events was classified using the National Cancer Institute Common Terminology Criteria for Adverse Events (CTCAE) version 4.0. A safety review committee provided study oversight.

p4E-BP1 (mTORC1) = test: Stimulated blood biomarker assay in monocytes (CD14+) for p4E-BP1 (mTORC1 inhibition); format: in vivo, human
Description: Central laboratories conducted serial stimulated blood biomarker assays in monocytes (CD14+) for p4E-BP1 and pPKB (also known as pAKT) for assessment of mTORC1 and mTORC2 inhibition, respectively. Monthly changes from baseline for chromogranin A (CgA), and for other serum hormones if elevated, were assayed locally.

[2] = 30 mg starting dose (n = 23), any grade
[3] = 45 mg starting dose (n = 24), any grade

Q: What does the source list for CO[C@H]1CC[C@H](N2C(=O)CNc3ncc(-c4ccc(C(C)(C)O)nc4)nc32)CC1 [CC-223]?
A: Patients requiring 1 dose reduction ([1]; 30 mg group (n = 23)): 11 patients; Patients requiring 2 dose reductions ([1]; 30 mg group (n = 23)): 7 patients; Patients requiring more than 2 dose reductions ([1]; 30 mg group (n = 23)): 0 patients; Treatment-related adverse event: AST increased [1, 2]: 3 (13.0) n (%); Treatment-related adverse event: Abdominal pain [1, 2]: 2 (8.7) n (%); Treatment-related adverse event: Asthenia [1, 2]: 7 (30.4) n (%); Treatment-related adverse event: Blood creatinine increased [1, 2]: 4 (17.4) n (%); Treatment-related adverse event: Decreased appetite [1, 2]: 4 (17.4) n (%); Treatment-related adverse event: Dehydration [1, 2]: 4 (17.4) n (%); Treatment-related adverse event: Diarrhea [1, 2]: 17 (73.9) n (%); Treatment-related adverse event: Dry mouth [1, 2]: 2 (8.7) n (%); Treatment-related adverse event: Dysgeusia [1, 2]: 3 (13.0) n (%); Treatment-related adverse event: Fatigue [1, 2]: 17 (73.9) n (%); Treatment-related adverse event: Hyperglycemia [1, 2]: 5 (21.7) n (%); Treatment-related adverse event: Maculopapular rash [1, 2]: 3 (13.0) n (%); Treatment-related adverse event: Malaise [1, 2]: 3 (13.0) n (%); Treatment-related adverse event: Mucosal inflammation [1, 2]: 3 (13.0) n (%); Treatment-related adverse event: Nausea [1, 2]: 6 (26.1) n (%); Treatment-related adverse event: Pruritus [1, 2]: 7 (30.4) n (%); Treatment-related adverse event: Rash [1, 2]: 6 (26.1) n (%); Treatment-related adverse event: Rash macular [1, 2]: 2 (8.7) n (%); Treatment-related adverse event: Stomatitis [1, 2]: 11 (47.8) n (%); Treatment-related adverse event: Vomiting [1, 2]: 2 (8.7) n (%); Patients requiring 1 dose reduction ([1]; 45 mg group (n = 24)): 3 patients; Patients requiring more than 2 dose reductions ([1]; 45 mg group (n = 24)): 2 patients; Tolerability in the NET cohort ([1]; 45 mg once daily): not well-tolerated; Treatment-related adverse event: AST increased [1, 3]: 2 (8.3) n (%); Treatment-related adverse event: Abdominal pain [1, 3]: 3 (12.5) n (%); Treatment-related adverse event: Asthenia [1, 3]: 4 (16.7) n (%); Treatment-related adverse event: Blood creatinine increased [1, 3]: 3 (12.5) n (%); Treatment-related adverse event: Decreased appetite [1, 3]: 8 (33.3) n (%); Treatment-related adverse event: Dehydration [1, 3]: 4 (16.7) n (%); Treatment-related adverse event: Diarrhea [1, 3]: 19 (79.2) n (%); Treatment-related adverse event: Dry mouth [1, 3]: 5 (20.8) n (%); Treatment-related adverse event: Dysgeusia [1, 3]: 5 (20.8) n (%); Treatment-related adverse event: Fatigue [1, 3]: 14 (58.3) n (%); Treatment-related adverse event: Hyperglycemia [1, 3]: 8 (33.3) n (%); Treatment-related adverse event: Maculopapular rash [1, 3]: 9 (37.5) n (%); Treatment-related adverse event: Malaise [1, 3]: 4 (16.7) n (%); Treatment-related adverse event: Mucosal inflammation [1, 3]: 3 (12.5) n (%); Treatment-related adverse event: Nausea [1, 3]: 12 (50.0) n (%); Treatment-related adverse event: Pruritus [1, 3]: 12 (50.0) n (%); Treatment-related adverse event: Rash [1, 3]: 12 (50.0) n (%); Treatment-related adverse event: Rash macular [1, 3]: 4 (16.7) n (%); Treatment-related adverse event: Stomatitis [1, 3]: 14 (58.3) n (%); Treatment-related adverse event: Vomiting [1, 3]: 5 (20.8) n (%); Patients with one or more serious adverse event related to CC-223 ([1]; 8 of 47 patients): 17%; Patients who remained on the dose initially assigned ([1]; 12 of 47 patients): 26%; Treatment-related adverse event: AST increased ([1]; Any dose (N = 47), Grade 3): 2 (4.3) n (%); Treatment-related adverse event: Abdominal pain ([1]; Any dose (N = 47), Grade 3): 1 (2.1) n (%); Treatment-related adverse event: Asthenia ([1]; Any dose (N = 47), Grade 3): 3 (6.4) n (%); Treatment-related adverse event: Blood creatinine increased ([1]; Any dose (N = 47), Grade 3): 1 (2.1) n (%); Treatment-related adverse event: Decreased appetite ([1]; Any dose (N = 47), Grade 3): 1 (2.1) n (%); Treatment-related adverse event: Dehydration ([1]; Any dose (N = 47), Grade 3): 1 (2.1) n (%); Treatment-related adverse event: Diarrhea ([1]; Any dose (N = 47), Grade 3): 18 (38.3) n (%); Treatment-related adverse event: Dry mouth ([1]; Any dose (N = 47), Grade 3): 0 n (%); Treatment-related adverse event: Dysgeusia ([1]; Any dose (N = 47), Grade 3): 0 n (%); Treatment-related adverse event: Fatigue ([1]; Any dose (N = 47), Grade 3): 10 (21.3) n (%); Treatment-related adverse event: Hyperglycemia ([1]; Any dose (N = 47), Grade 3): 0 n (%); Treatment-related adverse event: Maculopapular rash ([1]; Any dose (N = 47), Grade 3): 3 (6.4) n (%); Treatment-related adverse event: Malaise ([1]; Any dose (N = 47), Grade 3): 0 n (%); Treatment-related adverse event: Mucosal inflammation ([1]; Any dose (N = 47), Grade 3): 0 n (%); Treatment-related adverse event: Nausea ([1]; Any dose (N = 47), Grade 3): 1 (2.1) n (%); Treatment-related adverse event: Pruritus ([1]; Any dose (N = 47), Grade 3): 2 (4.3) n (%); Treatment-related adverse event: Rash ([1]; Any dose (N = 47), Grade 3): 1 (2.1) n (%); Treatment-related adverse event: Rash macular ([1]; Any dose (N = 47), Grade 3): 1 (2.1) n (%); Treatment-related adverse event: Stomatitis ([1]; Any dose (N = 47), Grade 3): 5 (10.6) n (%); Treatment-related adverse event: Vomiting ([1]; Any dose (N = 47), Grade 3): 2 (4.3) n (%); Treatment-related adverse event: AST increased ([1]; Any dose (N = 47), any grade): 5 (10.6) n (%); Treatment-related adverse event: Abdominal pain ([1]; Any dose (N = 47), any grade): 5 (10.6) n (%); Treatment-related adverse event: Asthenia ([1]; Any dose (N = 47), any grade): 11 (23.4) n (%); Treatment-related adverse event: Blood creatinine increased ([1]; Any dose (N = 47), any grade): 7 (14.9) n (%); Treatment-related adverse event: Decreased appetite ([1]; Any dose (N = 47), any grade): 12 (25.5) n (%); Treatment-related adverse event: Dehydration ([1]; Any dose (N = 47), any grade): 8 (17.0) n (%); Treatment-related adverse event: Diarrhea ([1]; Any dose (N = 47), any grade): 36 (76.6) n (%); Treatment-related adverse event: Dry mouth ([1]; Any dose (N = 47), any grade): 7 (14.9) n (%); Treatment-related adverse event: Dysgeusia ([1]; Any dose (N = 47), any grade): 8 (17.0) n (%); Treatment-related adverse event: Fatigue ([1]; Any dose (N = 47), any grade): 31 (66.0) n (%); Treatment-related adverse event: Hyperglycemia ([1]; Any dose (N = 47), any grade): 13 (27.7) n (%); Treatment-related adverse event: Maculopapular rash ([1]; Any dose (N = 47), any grade): 12 (25.5) n (%); Treatment-related adverse event: Malaise ([1]; Any dose (N = 47), any grade): 7 (14.9) n (%); Treatment-related adverse event: Mucosal inflammation ([1]; Any dose (N = 47), any grade): 6 (12.8) n (%); Treatment-related adverse event: Nausea ([1]; Any dose (N = 47), any grade): 18 (38.3) n (%); Treatment-related adverse event: Pruritus ([1]; Any dose (N = 47), any grade): 19 (40.4) n (%); Treatment-related adverse event: Rash ([1]; Any dose (N = 47), any grade): 18 (38.3) n (%); Treatment-related adverse event: Rash macular ([1]; Any dose (N = 47), any grade): 6 (12.8) n (%); Treatment-related adverse event: Stomatitis ([1]; Any dose (N = 47), any grade): 25 (53.2) n (%); Treatment-related adverse event: Vomiting ([1]; Any dose (N = 47), any grade): 7 (14.9) n (%); Most common TRAEs: asthenia ([1]; any grade, n = 47): 23%; Most common TRAEs: decreased appetite ([1]; any grade, n = 47): 26%; Most common TRAEs: diarrhea ([1]; any grade, n = 47): 77%; Most common TRAEs: fatigue ([1]; any grade, n = 47): 66%; Most common TRAEs: hyperglycemia ([1]; any grade, n = 47): 28%; Most common TRAEs: maculopapular rash ([1]; any grade, n = 47): 26%; Most common TRAEs: nausea ([1]; any grade, n = 47): 38%; Most common TRAEs: pruritus ([1]; any grade, n = 47): 40%; Most common TRAEs: rash ([1]; any grade, n = 47): 38%; Most common TRAEs: stomatitis ([1]; any grade, n = 47): 53%; Patients who reported at least one treatment-related adverse event (TRAE) ([1]; by investigator determination, n = 47): 98%; Patients with doses reduced for extended periods to levels as low as 15 mg ([1]; human, in vivo): 45%; Deaths on study due to treatment-related toxicity ([1]; n = 47): No patient died; Grade 3 or higher toxicity: diarrhea ([1]; n = 47): 38%; Grade 3 or higher toxicity: fatigue ([1]; n = 47): 21%; Grade 3 or higher toxicity: stomatitis ([1]; n = 47): 11%; Grade 4 or 5 toxicities among the most common adverse events ([1]; n = 47): no grade 4 or 5 toxicities reported; Patients who discontinued CC-223 because of toxicity ([1]; n = 47): 13%; Patients who experienced grade 3 or 4 treatment-related events ([1]; n = 47): 79%; Patients who required dose adjustments due to toxicity ([1]; n = 47): 85%; Toxicity causing discontinuation: decreased appetite ([1]; n = 47): 6%; Toxicity causing discontinuation: diarrhea ([1]; n = 47): 9%; Toxicity causing discontinuation: nausea ([1]; n = 47): 4%; Toxicity requiring dose adjustments: diarrhea ([1]; n = 47): 40%; Toxicity requiring dose adjustments: fatigue ([1]; n = 47): 17%; Toxicity requiring dose adjustments: increased blood creatinine ([1]; n = 47): 13%; Toxicity requiring dose adjustments: stomatitis ([1]; n = 47): 17%; Patients requiring 2 dose reductions ([1]; overall, n = 47): 19 patients; Patients requiring more than 2 dose reductions ([1]; overall, n = 47): 4 patients; Mean time to first dose reduction ([1]; overall, range 8–589 days): 46 days; p4E-BP1 median inhibition (p4E-BP1 (mTORC1); 30 mg, after multiple doses): 26%; p4E-BP1 median inhibition (p4E-BP1 (mTORC1); 30 mg, following a single dose): 9%; p4E-BP1 median inhibition (p4E-BP1 (mTORC1); 45 mg, 1.5 hours after a single dose): 37%; p4E-BP1 median inhibition (p4E-BP1 (mTORC1); 45 mg, after multiple doses): 47%; p4E-BP1 median biomarker inhibition relative to baseline (p4E-BP1 (mTORC1); across both dose level cohorts (45 mg or 30 mg), 1.5 hours after multiple dosing on day 15): > 26%
